In PubChem BioAssay (NCI):
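Results reflect a 48-hour exposure of cells in 96-well plates to compound at five concentrations. GI50 marks 50% less growth. Definition used: TGI = concentration required for complete inhibition of growth.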

Legend:
Test in all cases: NCI tumour cell line growth inhibition, 48 h
786-0 renal = system: 786-0 renal
A498 renal = system: A498 renal
A549 NSCLC = system: A549 NSCLC
ACHN renal = system: ACHN renal
BT-549 breast = system: BT-549 breast
CAKI-1 renal = system: CAKI-1 renal
CCRF-CEM leukemia = system: CCRF-CEM leukemia
COLO 205 colon = system: COLO 205 colon
DU-145 prostate = system: DU-145 prostate
EKVX NSCLC = system: EKVX NSCLC
HCC-2998 colon = system: HCC-2998 colon
HCT-116 colon = system: HCT-116 colon
HCT-15 colon = system: HCT-15 colon
HL-60(TB) leukemia = system: HL-60(TB) leukemia
HOP-62 NSCLC = system: HOP-62 NSCLC
HOP-92 NSCLC = system: HOP-92 NSCLC
HS 578T breast = system: HS 578T breast
HT29 colon = system: HT29 colon
IGROV1 ovarian = system: IGROV1 ovarian
K-562 leukemia = system: K-562 leukemia
KM12 colon = system: KM12 colon
LOX IMVI melanoma = system: LOX IMVI melanoma
M14 melanoma = system: M14 melanoma
MALME-3M melanoma = system: MALME-3M melanoma
MCF7 breast = system: MCF7 breast
MDA-MB-231 breast = system: MDA-MB-231 breast
MDA-MB-435 = system: MDA-MB-435
MDA-MB-468 breast = system: MDA-MB-468 breast
MOLT-4 leukemia = system: MOLT-4 leukemia
NCI-H226 lung = system: NCI-H226 lung
NCI-H23 lung = system: NCI-H23 lung
NCI-H460 lung = system: NCI-H460 lung
NCI-H522 lung = system: NCI-H522 lung
NCI/ADR-RES ovarian = system: NCI/ADR-RES ovarian
OVCAR-3 ovarian = system: OVCAR-3 ovarian
OVCAR-4 ovarian = system: OVCAR-4 ovarian
OVCAR-5 ovarian = system: OVCAR-5 ovarian
OVCAR-8 ovarian = system: OVCAR-8 ovarian
PC-3 prostate = system: PC-3 prostate
RPMI-8226 leukemia = system: RPMI-8226 leukemia
RXF 393 renal = system: RXF 393 renal
SF-268 CNS = system: SF-268 CNS
SF-295 CNS = system: SF-295 CNS
SF-539 CNS = system: SF-539 CNS
SK-MEL-2 melanoma = system: SK-MEL-2 melanoma
SK-MEL-28 melanoma = system: SK-MEL-28 melanoma
SK-MEL-5 melanoma = system: SK-MEL-5 melanoma
SK-OV-3 ovarian = system: SK-OV-3 ovarian
SN12C renal = system: SN12C renal
SNB-19 CNS = system: SNB-19 CNS
SNB-75 CNS = system: SNB-75 CNS
SR leukemia = system: SR leukemia
SW-620 colon = system: SW-620 colon
T-47D breast = system: T-47D breast
TK-10 renal = system: TK-10 renal
U251 CNS = system: U251 CNS
UACC-257 melanoma = system: UACC-257 melanoma
UACC-62 melanoma = system: UACC-62 melanoma
UO-31 renal = system: UO-31 renal

## CC(=O)Nc1nc(-c2ccc(N3CCN(C)CC3)c(NS(=O)(=O)c3ccc(C(F)(F)F)cc3)c2)cs1
786-0 renal
  GI50: 5.18 µM
  TGI: 12.6 µM
A498 renal
  GI50: 6.64 µM
  TGI: 13.5 µM
A549 NSCLC
  GI50: 7.24 µM
  TGI: 16.3 µM
ACHN renal
  GI50: 4.67 µM
  TGI: 11.1 µM
BT-549 breast
  GI50: 5.83 µM
  TGI: 12.8 µM
CAKI-1 renal
  GI50: 3.91 µM
  TGI: 11 µM
CCRF-CEM leukemia
  GI50: 1.97 µM
  TGI: 9.86 µM
COLO 205 colon
  GI50: 7.95 µM
  TGI: 18.7 µM
DU-145 prostate
  GI50: 6.51 µM
  TGI: 14.5 µM
EKVX NSCLC
  GI50: 7.41 µM
  TGI: 14.5 µM
HCC-2998 colon
  GI50: 7.51 µM
  TGI: 14.5 µM
HCT-116 colon
  GI50: 3.01 µM
  TGI: 11.9 µM
HCT-15 colon
  GI50: 3.18 µM
  TGI: 10.8 µM
HL-60(TB) leukemia
  GI50: 3.35 µM
  TGI: 19.1 µM
HOP-62 NSCLC
  GI50: 9.06 µM
  TGI: 17.2 µM
HOP-92 NSCLC
  GI50: 5.34 µM
  TGI: 14.1 µM
HS 578T breast
  GI50: 5.77 µM
  TGI: 20.2 µM
HT29 colon
  GI50: 4.77 µM
  TGI: 16 µM
IGROV1 ovarian
  GI50: 6.41 µM
  TGI: 13 µM
K-562 leukemia
  GI50: 5.47 µM
  TGI: 53 µM
KM12 colon
  GI50: 7.55 µM
  TGI: 16.4 µM
LOX IMVI melanoma
  GI50: 2.46 µM
  TGI: 8.87 µM
M14 melanoma
  GI50: 7.25 µM
  TGI: 17.1 µM
MALME-3M melanoma
  GI50: 6.73 µM
  TGI: 13.5 µM
MCF7 breast
  GI50: 2.58 µM
  TGI: 10.6 µM
MDA-MB-231 breast
  GI50: 5.78 µM
  TGI: 12.4 µM
MDA-MB-435
  GI50: 4.08 µM
  TGI: 12.6 µM
MDA-MB-468 breast
  GI50: 2.04 µM
  TGI: 7.95 µM
MOLT-4 leukemia
  GI50: 5.34 µM
  TGI: 23.6 µM
NCI-H226 lung
  GI50: 8.25 µM
  TGI: 19.1 µM
NCI-H23 lung
  GI50: 8.11 µM
  TGI: 15.8 µM
NCI-H460 lung
  GI50: 6.77 µM
  TGI: 14.8 µM
NCI-H522 lung
  GI50: 3.62 µM
  TGI: 10.8 µM
NCI/ADR-RES ovarian
  GI50: 6.97 µM
  TGI: 21.6 µM
OVCAR-3 ovarian
  GI50: 3.06 µM
  TGI: 10.6 µM
OVCAR-4 ovarian
  GI50: 6.72 µM
  TGI: 14.6 µM
OVCAR-5 ovarian
  GI50: 7.63 µM
  TGI: 14.7 µM
OVCAR-8 ovarian
  GI50: 8.2 µM
  TGI: 23.9 µM
PC-3 prostate
  GI50: 6.33 µM
  TGI: 17.2 µM
RPMI-8226 leukemia
  GI50: 2.16 µM
  TGI: 53 µM
RXF 393 renal
  GI50: 2.61 µM
  TGI: 9.24 µM
SF-268 CNS
  GI50: 6.99 µM
  TGI: 16.4 µM
SF-295 CNS
  GI50: 6.51 µM
  TGI: 13.4 µM
SF-539 CNS
  GI50: 4.12 µM
  TGI: 10.8 µM
SK-MEL-2 melanoma
  GI50: 7.27 µM
  TGI: 14.4 µM
SK-MEL-28 melanoma
  GI50: 7.72 µM
  TGI: 14.7 µM
SK-MEL-5 melanoma
  GI50: 6 µM
  TGI: 12.5 µM
SK-OV-3 ovarian
  GI50: 10 µM
  TGI: 19.6 µM
SN12C renal
  GI50: 6.19 µM
  TGI: 12.7 µM
SNB-19 CNS
  GI50: 7.82 µM
  TGI: 14.8 µM
SNB-75 CNS
  GI50: 2.44 µM
  TGI: 9.48 µM
SR leukemia
  GI50: 1.98 µM
  TGI: 37.6 µM
SW-620 colon
  GI50: 3.21 µM
  TGI: 11.3 µM
T-47D breast
  GI50: 4.71 µM
  TGI: 13.2 µM
TK-10 renal
  GI50: 7.04 µM
  TGI: 14 µM
U251 CNS
  GI50: 7.52 µM
  TGI: 15 µM
UACC-257 melanoma
  GI50: 6.76 µM
  TGI: 14 µM
UACC-62 melanoma
  GI50: 6.08 µM
  TGI: 12.6 µM
UO-31 renal
  GI50: 6.13 µM
  TGI: 12.6 µM
